Test results published in the supplement of paper PMC10627819.

What was measured:
S. aureus DSM 20231 = assay: Bliss interaction score (quartile over a dose matrix) (fitness difference); higher = more antagonism (negative = synergy)
Method in brief: (§1)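 Combination data were used to infer fitness under each single drug. Fitness is the OD595 at entry into stationary phase divided by the robust mean of the plate's no-drug wells, with a cap of 1. The Bliss score is the observed minus the expected product fitness, summarised by quartiles over technical, biological and donor/recipient replicates.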

S. pneumoniae D39V [1] = assay: as above
Method in brief: as §1

B. subtilis 168 = assay: as above
Method in brief: as §1

S. aureus Newman = assay: as above
Method in brief: as §1

S. pneumoniae D39V [2] = assay: fitness (endpoint OD595 vs no drug) (fraction); higher = more growth
Method in brief: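 Fitness compares growth at the stationary-phase transition with the robust mean of no-drug control wells, as a ratio of optical densities. The ratio is capped at 1. Wells of 384-well plates held 30 µl, or 55 µl for S. pneumoniae, inoculated at OD595 0.01. Readings at OD595 every 30 min for 14 h at 37 °C were corrected against the first reading.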
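Throughout, for Bliss interaction score (quartile over a dose matrix): first quartile when negative (synergy) and third quartile when positive (antagonism).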

CCCCCCCCCC(=O)N[C@@H](Cc1c[nH]c2ccccc12)C(=O)N[C@H](CC(N)=O)C(=O)N[C@@H](CC(=O)O)C(=O)N[C@@H]1C(=O)NCC(=O)N[C@@H](CCCN)C(=O)N[C@@H](CC(=O)O)C(=O)N[C@H](C)C(=O)N[C@@H](CC(=O)O)C(=O)NCC(=O)N[C@H](CO)C(=O)N[C@@H]([C@H](C)CC(=O)O)C(=O)N[C@@H](CC(=O)c2ccccc2N)C(=O)O[C@@H]1C [Daptomycin] + Clc1ccc(COC(Cn2ccnc2)c2ccc(Cl)cc2Cl)c(Cl)c1 [Miconazole]
Details	Bliss interaction score
B. subtilis 168	0.0988
S. aureus DSM 20231	-0.0305
S. aureus Newman	-0.0424
S. pneumoniae D39V [1]	0.0797

fitness, S. pneumoniae D39V [2]
Details	partner 1.073 µg/mL	partner 1.25 µg/mL	partner 2.145 µg/mL	partner 2.5 µg/mL	partner 4.29 µg/mL	partner 5 µg/mL
first compound 1 µg/mL	0.962	0.922	0.967	0.913	0.841	0.898
first compound 2 µg/mL	0.984	0.888	0.981	0.896	0.881	0.86
first compound 4 µg/mL	≥ 1	0.847	≥ 1	0.813	0.882	0.836

CCCCCCCCCC(=O)N[C@@H](Cc1c[nH]c2ccccc12)C(=O)N[C@H](CC(N)=O)C(=O)N[C@@H](CC(=O)O)C(=O)N[C@@H]1C(=O)NCC(=O)N[C@@H](CCCN)C(=O)N[C@@H](CC(=O)O)C(=O)N[C@H](C)C(=O)N[C@@H](CC(=O)O)C(=O)NCC(=O)N[C@H](CO)C(=O)N[C@@H]([C@H](C)CC(=O)O)C(=O)N[C@@H](CC(=O)c2ccccc2N)C(=O)O[C@@H]1C [Daptomycin] + CO[C@H]1/C=C/O[C@@]2(C)Oc3c(C)c(O)c4c(O)c(c(/C=N/N5CCN(C)CC5)c(O)c4c3C2=O)NC(=O)/C(C)=C\C=C\[C@H](C)[C@H](O)[C@@H](C)[C@@H](O)[C@@H](C)[C@H](OC(C)=O)[C@@H]1C [Rifampicin]
Details	Bliss interaction score
B. subtilis 168	-0.0667
S. aureus DSM 20231	-0.0427
S. aureus Newman	0.0195
S. pneumoniae D39V [1]	0.104

fitness, S. pneumoniae D39V [2]
Details	first compound 1 µg/mL	first compound 2 µg/mL	first compound 4 µg/mL
partner 0.025 µg/mL	0.978	≥ 1	≥ 1
partner 0.05 µg/mL	0.823	0.864	0.926
partner 0.1 µg/mL	0.262	0.271	–

S. pneumoniae D39V [2], partner 0.2 µg/mL, one replicate
Details	fitness
first compound 1 µg/mL	0
first compound 2 µg/mL	0
first compound 4 µg/mL	0

CC1(C)S[C@@H]2[C@H](NC(=O)[C@H](N)c3ccc(O)cc3)C(=O)N2[C@H]1C(=O)O [Amoxicillin] + O=C1CN(/N=C/c2ccc([N+](=O)[O-])o2)C(=O)N1 [Nitrofurantoin]
Details	Bliss interaction score
B. subtilis 168	-0.206
S. aureus DSM 20231	-0.0521
S. aureus Newman	0.0375
S. pneumoniae D39V [1]	0.11

fitness, S. pneumoniae D39V [2]
Details	partner 1.285 µg/mL	partner 2 µg/mL	partner 2.57 µg/mL	partner 4 µg/mL	partner 8 µg/mL
first compound 0.0008 µg/mL	≥ 1	–	0.957	–	–
first compound 0.0015 µg/mL	0.92	0.906	0.962	0.897	0.903
first compound 0.003 µg/mL	0.909	0.859	0.922	0.868	0.875

fitness, S. pneumoniae D39V [2], one replicate
Details	first compound 0.0008 µg/mL	first compound 0.0015 µg/mL	first compound 0.003 µg/mL	first compound 0.006 µg/mL
partner 2 µg/mL	0.93	–	–	0.43
partner 4 µg/mL	0.979	–	–	0.433
partner 5.14 µg/mL	0.928	0.921	0.857	–
partner 8 µg/mL	0.944	–	–	0.514

CC1(C)S[C@@H]2[C@H](NC(=O)[C@H](N)c3ccc(O)cc3)C(=O)N2[C@H]1C(=O)O [Amoxicillin] + C[C@H]1c2cccc(O)c2C(=O)C2=C(O)[C@]3(O)C(=O)C(C(N)=O)=C(O)[C@@H](N(C)C)[C@@H]3[C@@H](O)[C@@H]21 [Doxycycline]
Details	Bliss interaction score
B. subtilis 168	0.136
S. aureus DSM 20231	-0.0671
S. aureus Newman	-0.0414
S. pneumoniae D39V [1]	0.151

S. pneumoniae D39V [2], one replicate
Details	fitness
first compound 0.0008 µg/mL, partner 0.003875 µg/mL	0.967
first compound 0.0008 µg/mL, partner 0.00775 µg/mL	0.976
first compound 0.0015 µg/mL, partner 0.003875 µg/mL	0.961
first compound 0.0015 µg/mL, partner 0.00775 µg/mL	0.988
first compound 0.003 µg/mL, partner 0.003875 µg/mL	0.944
first compound 0.003 µg/mL, partner 0.00775 µg/mL	0.973
first compound 0.006 µg/mL, partner 0.0155 µg/mL	0.386
first compound 0.006 µg/mL, partner 0.031 µg/mL	0.421
first compound 0.006 µg/mL, partner 0.062 µg/mL	0.451

fitness, S. pneumoniae D39V [2]
Details	first compound 0.0008 µg/mL	first compound 0.0015 µg/mL	first compound 0.003 µg/mL
partner 0.0155 µg/mL	0.931	0.899	0.898
partner 0.031 µg/mL	0.853	0.86	0.903
partner 0.062 µg/mL	0.797	0.767	0.724
